From patent publication US20240228493A1, “LRRK2 INHIBITORS AND USES THEREOF” (NEURON23, ICN., priority 2022, published 2024)

Test system: human hepatocyte
Assay: Human hepatocyte stability, predicted hepatic clearance (h-Hept CL predict)
Format: in vitro ADME
Details: human hepatocytes, 0.5×10^6 cells/mL, 1 μM, values without asterisk
Procedure, shortened: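 Cryopreserved human hepatocytes, 0.5×10^6 viable cells/mL in William's E/GlutaMAX, incubated with compound at 1 μM final, duplicates. Sampling at 0-120 min, LC/MS/MS parent loss gives t1/2, converted to CLint and scaled to predicted hepatic clearance (well-stirred model, fub assumed 1).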

Row | Compound | hHep Cl (mL/min/kg)
1 | Fc1cccc(F)c1C1=Nc2c(Cl)n[nH]c2-c2cc(N3CCOCC3)ccc2N1 (single isomer, unassigned) [Example 35, 4-(3-chloro-5-(2,6-difluorophenyl)-1,6-dihydrobenzo[d]pyrazolo[3,4-f][1,3]diazepin-9-y1)morpholine] | L (L (Low Cl)”: Hep Cl (mL/min/kg)<6.3)
2 | Cc1n[nH]c2c1N=C(c1c(F)cccc1F)Nc1ccc(N3CCO[C@H](C(C)(C)O)C3)cc1-2 (single isomer, unassigned) [Example 36] | L (L (Low Cl)”: Hep Cl (mL/min/kg)<6.3)
3 | Cc1n[nH]c2c1N=C(c1c(F)cccc1F)Nc1c-2cc(N2CCO[C@@H](C(C)(C)O)C2)nc1C (single isomer, unassigned) [Example 39] | L (L (Low Cl)”: Hep Cl (mL/min/kg)<6.3)
4 | Cc1n[nH]c2c1N=C(c1c(F)cccc1F)Nc1cnc(N3CCS(=O)(=O)CC3)cc1-2 [Example 2, 4-[8-(2,6-difluorophenyl)-5-methyl-3,4,7,9,12-pentazatricyclo[8.4.0.02,6]tetradeca-1(10),2(6),4,7,11,13-hexaen-13-y1]-1,4-thiazinane 1,1-dioxide] | L (L (Low Cl)”: Hep Cl (mL/min/kg)<6.3)
5 | Cc1n[nH]c2c1N=C(c1c(F)cccc1F)Nc1cnc(N3C[C@@H]4C[C@H]3CO4)cc1-2 [Example 6, (1S,4S)-5-[8-(2,6-difluorophenyl)-5-methyl-3,4,7,9,12-pentazatricyclo[8.4.0.02,6]tetradeca-1(10),2(6),4,7,11,13-hexaen-13-y1]-2-oxa-5-azabicyclo[2.2.1]heptane] | L (L (Low Cl)”: Hep Cl (mL/min/kg)<6.3)
6 | [2H]C1([2H])OC([2H])([2H])C([2H])([2H])N(c2cc3c(cn2)NC(c2c(F)cccc2F)=Nc2c(C)n[nH]c2-3)C1([2H])[2H] [Example 14, 2,2,3,3,5,5,6,6-octadeuterio-4-[8-(2,6-difluorophenyl)-5-methyl-3,4,7,9,12-pentazatricyclo[8.4.0.02,6]tetradeca-1(10),2(6),4,7,11,13-hexaen-13-yl]morpholine] | L (L (Low Cl)”: Hep Cl (mL/min/kg)<6.3)
7 | Cc1n[nH]c2c1N=C(c1c(F)cccc1F)Nc1cnc(N3CCC[C@@H](C#N)C3)cc1-2 [Example 18, (3R)-1-[8-(2,6-difluorophenyl)-5-methyl-3,4,7,9,12-pentazatricyclo[8.4.0.02,6]tetradeca-1(10),2(6),4,7,11,13-hexaen-13-yl]piperidine-3-carbonitrile] | L (L (Low Cl)”: Hep Cl (mL/min/kg)<6.3)
8 | [2H]C1([2H])OC([2H])([2H])C([2H])([2H])N(c2cc3c(cn2)NC(c2c(F)cccc2F)=Nc2cn[nH]c2-3)C1([2H])[2H] [Example 20, 2,2,3,3,5,5,6,6-octadeuterio-4-[8-(2,6-difluorophenyl)-3,4,7,9,12-pentazatricyclo[8.4.0.02,6]tetradeca-1(10),2(6),4,7,11,13-hexaen-13-yl]morpholine] | L (L (Low Cl)”: Hep Cl (mL/min/kg)<6.3)
9 | Fc1cccc(F)c1C1=Nc2c(Cl)n[nH]c2-c2cc(N3CCOCC3)ncc2N1 [Example 23, 4-(3-chloro-5-(2,6-difluorophenyl)-1,6-dihydropyrazolo[4,3-d]pyrido[4,3-f][1,3]diazepin-9-yl)morpholine] | L (L (Low Cl)”: Hep Cl (mL/min/kg)<6.3)
10 | C[C@H]1CN(c2cc3c(cn2)NC(c2c(F)cccc2F)=Nc2c(Cl)n[nH]c2-3)C[C@H](C)O1 [Example 26, (2S,6S)-4-(3-chloro-5-(2,6-difluorophenyl)-1,6-dihydropyrazolo[4,3-d]pyrido[4,3-f][1,3]diazepin-9-yl)-2,6-dimethylmorpholine] | I (I (Intermediate Cl)”: 6.3≤Hep Cl (mL/min/kg)≤14.7)
11 | [2H]C([2H])([2H])c1n[nH]c2c1N=C(c1c(F)cccc1F)Nc1cnc(N3CCO[C@H](C)C3)cc1-2 [Example 27, (2R)-4-[8-(2,6-difluorophenyl)-5-(trideuteriomethyl)-3,4,7,9,12-pentazatricyclo[8.4.0.02,6]tetradeca-1(10),2(6),4,7,11,13-hexaen-13-y1]-2-methyl-morpholine] | L (L (Low Cl)”: Hep Cl (mL/min/kg)<6.3)
12 | Cc1n[nH]c2c1N=C(c1c(F)cccc1F)Nc1cnc(-c3cnn(CC(F)F)c3)cc1-2 [Example 28, 13-[1-(2,2-difluoroethyl)pyrazol-4-y1]-8-(2,6-difluorophenyl)-5-methyl-3,4,7,9,12-pentazatricyclo[8.4.0.02,6]tetradeca-1(10),2(6),4,7,11,13-hexaene] | L (L (Low Cl)”: Hep Cl (mL/min/kg)<6.3)
13 | Fc1cccc(F)c1C1=Nc2cn[nH]c2-c2cc(N3CCOCC3)ncc2N1 [Example 33, 4-[8-(2,6-difluorophenyl)-3,4,7,9,12-pentazatricyclo[8.4.0.02,6]tetradeca-1(10),2(6),4,7,11,13-hexaen-13-yl]morpholine] | L (L (Low Cl)”: Hep Cl (mL/min/kg)<6.3)
14 | Cc1n[nH]c2c1N=C(c1c(F)cccc1F)Nc1c-2cc(N2CCO[C@@H](CO)C2)nc1C [Example 37, (R)-(4-(5-(2,6-difluorophenyl)-3,7-dimethyl-1,6-dihydropyrazolo[4,3-d]pyrido[4,3-f][1,3]diazepin-9-yl)morpholin-2-y1)methanol] | L (L (Low Cl)”: Hep Cl (mL/min/kg)<6.3)
15 | Cc1n[nH]c2c1N=C(c1c(F)cccc1F)Nc1c-2cc(N2CCC(C)(O)CC2)nc1C [Example 41, 1-(5-(2,6-difluorophenyl)-3,7-dimethyl-1,6-dihydropyrazolo[4,3-d]pyrido[4,3-f][1,3]diazepin-9-yl)-4-methylpiperidin-4-ol] | I (I (Intermediate Cl)”: 6.3≤Hep Cl (mL/min/kg)≤14.7)
16 | Cn1cc(-c2cc3c(cn2)NC(c2c(F)cccc2F)=Nc2c(Cl)n[nH]c2-3)cn1 [Example 54, 3-chloro-5-(2,6-difluorophenyl)-9-(1-methyl-1H-pyrazol-4-yl)-1,6-dihydropyrazolo[4,3-d]pyrido[4,3-f][1,3]diazepine] | I (I (Intermediate Cl)”: 6.3≤Hep Cl (mL/min/kg)≤14.7)
